ChEMBL document CHEMBL1201862, “PubChem BioAssay data set” (2004)
The source made the active and inactive calls.

How the values were obtained:
[1] = molecular target: T1, Kappa-type opioid receptor (Homo sapiens, UniProt P41145); test: KOR agonist analogs, imaging readout, SAR follow-up, image-based (AID 2359); format: functional
[2] = molecular target: T2, Delta-type opioid receptor (Homo sapiens, UniProt P41143); test: DOR antagonists, SAR follow-up, image-based (AID 2357); format: functional
[3] = molecular target: T1, Kappa-type opioid receptor; format: functional
Mu-type opioid receptor [4] = molecular target: T3, Mu-type opioid receptor (Homo sapiens, UniProt P35372); test: HTS Image-Based Screen for Agonists of the MOR Receptor. [Related pubchem assays (depositor defined):AID1777, AID1785, AID1786, AID2133]; format: functional
[5] = molecular target: T1, Kappa-type opioid receptor; format: functional; remark: listed apart in the source
Beta-galactosidase [6] = molecular target: T4, Beta-galactosidase (Escherichia coli, UniProt Q8VNN2); format: functional
[7] = molecular target: T2, Delta-type opioid receptor; test: DOR agonists, SAR follow-up, image-based (AID 2370); format: functional
[8] = molecular target: T1, Kappa-type opioid receptor; test: KOR antagonists by imaging, SAR follow-up, image-based (AID 2348); format: functional
Mu-type opioid receptor [9] = molecular target: T3, Mu-type opioid receptor; test: MOR agonists by imaging, SAR follow-up, image-based (AID 2352); format: functional
Mu-type opioid receptor [10] = molecular target: T3, Mu-type opioid receptor; test: MOR antagonists, SAR follow-up, image-based (AID 2420); format: functional;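 also: compounds added before stimulation of receptor with agonist DAMGO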
[11] = molecular target: T1, Kappa-type opioid receptor; test: kappa opioid receptor blockers, cell-based, luminescence, beta-arrestin, SAR follow-up (AID 2285); format: functional
[12] = molecular target: T2, Delta-type opioid receptor; test: HTS Image-Based Screen for Antagonists of the DOR Receptor. [Related pubchem assays (depositor defined):AID1777, AID1785, AID1786, AID2133]; format: functional
[13] = molecular target: T2, Delta-type opioid receptor; test: HTS Image-Based Screen for Agonists of the DOR Receptor. [Related pubchem assays (depositor defined):AID1777, AID1786, AID2133]; format: functional
Hexokinase-1 = Hexokinase-1 (Homo sapiens, UniProt P19367); test: hexokinase 1 activators, dose response, selectivity assay for HKDC1 activator project, biochemical (AID 504762); format: functional
[14] = molecular target: T5, Type-1 angiotensin II receptor (Homo sapiens, UniProt P30556); test: AT1 receptor antagonists, dose response, selectivity assay for APJ receptor antagonist project, cell-based, uHTS hits (AID 463214); format: functional;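 also: antagonist potency against angiotensin II stimulated AT1 response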
T5 sequence (P30556 whole entry): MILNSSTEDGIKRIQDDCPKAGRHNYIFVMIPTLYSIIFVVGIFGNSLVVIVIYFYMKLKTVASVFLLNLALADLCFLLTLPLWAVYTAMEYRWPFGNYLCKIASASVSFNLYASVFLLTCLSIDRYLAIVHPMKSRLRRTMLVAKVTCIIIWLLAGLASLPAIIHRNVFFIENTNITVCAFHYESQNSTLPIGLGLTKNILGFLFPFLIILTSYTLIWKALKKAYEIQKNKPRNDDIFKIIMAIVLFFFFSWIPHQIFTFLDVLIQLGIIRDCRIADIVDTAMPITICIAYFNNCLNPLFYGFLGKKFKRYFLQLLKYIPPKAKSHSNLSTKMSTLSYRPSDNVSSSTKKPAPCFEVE

[15] = inhibitors of intracellular T. cruzi replication, confirmation, NIH3T3 host cells, beta-gal luminescence (AID 2044); format: functional, cell-based;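 also: intracellular parasites grown in NIH/3T3 mouse fibroblasts as host cells; luminescent beta-galactosidase reporter signal from transgenic T. cruzi replicating inside host cells; inhibitors lower the luminescence signal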
Beta-galactosidase [16] = molecular target: T4, Beta-galactosidase; test: PubChem AID 485352; format: functional
[17] = insulin promoter down-regulators in MIN6 cells, imaging, high-content screening, mouse beta cells (AID 1628); format: functional
[18] = cytotoxicity in MIN6 insulinoma cells, dose response, cytotoxicity control, cell-based, mouse insulinoma (AID 2122); format: functional;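 also: confirmatory high-throughput counterscreen run to flag cytotoxic compounds; mouse MIN-6 beta cells carrying an insulin promoter eGFP reporter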
[19] = cytotoxicity toward NIH3T3 fibroblasts, dose response, counter-screen, cell-based, ATP luminescence, mouse fibroblasts (AID 2010); format: functional;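 also: cells exposed to compound for about 90 hours before reading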
Hexokinase HKDC1 = molecular target: T6, Hexokinase HKDC1 (Homo sapiens, UniProt Q2TB90); test: HKDC1 hexokinase activators, dose response, biochemical, W721R variant (AID 504730); format: functional
T6 sequence (Q2TB90 whole entry): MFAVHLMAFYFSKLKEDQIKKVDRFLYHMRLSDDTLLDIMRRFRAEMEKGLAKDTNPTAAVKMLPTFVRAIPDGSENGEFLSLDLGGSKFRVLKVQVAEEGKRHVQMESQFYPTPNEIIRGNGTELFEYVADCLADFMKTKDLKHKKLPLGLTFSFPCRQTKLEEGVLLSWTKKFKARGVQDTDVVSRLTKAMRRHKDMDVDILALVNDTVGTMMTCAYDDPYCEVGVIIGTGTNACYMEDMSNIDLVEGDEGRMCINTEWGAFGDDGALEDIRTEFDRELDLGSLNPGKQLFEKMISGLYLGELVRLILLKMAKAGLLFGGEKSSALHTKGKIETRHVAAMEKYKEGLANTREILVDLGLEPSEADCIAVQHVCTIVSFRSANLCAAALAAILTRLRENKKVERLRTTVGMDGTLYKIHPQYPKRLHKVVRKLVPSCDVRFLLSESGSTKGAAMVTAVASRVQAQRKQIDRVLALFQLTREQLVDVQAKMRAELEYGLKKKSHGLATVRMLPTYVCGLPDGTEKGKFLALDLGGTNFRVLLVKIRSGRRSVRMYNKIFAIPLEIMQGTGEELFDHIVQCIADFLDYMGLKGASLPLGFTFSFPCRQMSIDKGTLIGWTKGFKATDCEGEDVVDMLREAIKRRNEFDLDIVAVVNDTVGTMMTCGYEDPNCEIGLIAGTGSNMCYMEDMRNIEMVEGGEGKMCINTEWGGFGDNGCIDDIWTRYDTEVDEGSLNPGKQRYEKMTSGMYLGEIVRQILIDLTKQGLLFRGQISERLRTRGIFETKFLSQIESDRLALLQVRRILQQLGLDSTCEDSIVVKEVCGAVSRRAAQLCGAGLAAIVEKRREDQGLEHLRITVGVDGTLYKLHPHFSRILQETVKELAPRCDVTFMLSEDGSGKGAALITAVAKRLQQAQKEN

[20] = molecular target: T7, Dual specificity protein phosphatase 3 (Homo sapiens, UniProt P51452); test: VHR1 phosphatase inhibitors, biochemical (AID 1878)
[21] = molecular target: Induced myeloid leukemia cell differentiation protein Mcl-1 (Homo sapiens, UniProt Q07820); format: functional
[22] = molecular target: T7, Dual specificity protein phosphatase 3; test: VHR1 phosphatase inhibitors, primary screen, biochemical, absorbance, uHTS (AID 1654)
[23] = molecular target: Dual specificity protein phosphatase 6 (Rattus norvegicus, UniProt Q64346); test: MKP-3 phosphatase inhibitors, primary screen, biochemical, rat enzyme, in vitro (AID 425)
[24] = molecular target: T8, Zinc finger protein mex-5 (Caenorhabditis elegans, UniProt Q9XUB2); test: MEX-5/TCR-2 RNA interaction inhibitors, dose response, biochemical, C. elegans, fluorescence polarization (AID 1960)
T8 sequence (Q9XUB2 whole entry): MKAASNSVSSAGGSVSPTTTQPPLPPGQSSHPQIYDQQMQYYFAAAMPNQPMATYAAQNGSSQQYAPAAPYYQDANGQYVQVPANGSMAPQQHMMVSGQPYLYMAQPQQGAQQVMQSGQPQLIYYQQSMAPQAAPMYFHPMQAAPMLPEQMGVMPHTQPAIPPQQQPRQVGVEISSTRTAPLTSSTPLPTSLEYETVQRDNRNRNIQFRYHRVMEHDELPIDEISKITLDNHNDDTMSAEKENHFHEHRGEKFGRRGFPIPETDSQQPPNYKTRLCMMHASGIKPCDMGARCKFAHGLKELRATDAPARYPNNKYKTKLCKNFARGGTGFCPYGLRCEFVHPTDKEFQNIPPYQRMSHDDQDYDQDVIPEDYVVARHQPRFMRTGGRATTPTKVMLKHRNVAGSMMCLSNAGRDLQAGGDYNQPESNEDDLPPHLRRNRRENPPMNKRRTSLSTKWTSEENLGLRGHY

Troponin, cardiac muscle = Troponin, cardiac muscle (Homo sapiens, UniProt P19429+P45379+P63316); test: Fluorescence-based biochemical high throughput dose response assay for activators of the calcium sensitivity of cardiac Regulated Thin Filaments (RTF). [Related pubchem assays (depositor defined):AID493008, AID493018, AID504382, AID504383]; format: protein-complex assay
[25] = molecular target: T9, Runt-related transcription factor 1/Core-binding factor subunit beta (Homo sapiens, UniProt Q01196+Q13951); test: inhibitors of RUNX1 Runt–CBFb-SMMHC binding, biochemical, TR-FRET (AID 1438); format: protein assay
[26] = molecular target: T10, RNA-binding protein pos-1 (Caenorhabditis elegans, UniProt G5EF15); test: inhibitors of POS-1/mex-3 RNA binding, dose response, biochemical, fluorescence polarization (AID 1964);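 also: purified POS-1 fused to maltose binding protein made in E. coli; potency of compounds blocking POS-1 binding to fluorescent RNA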
T10 sequence (G5EF15 whole entry): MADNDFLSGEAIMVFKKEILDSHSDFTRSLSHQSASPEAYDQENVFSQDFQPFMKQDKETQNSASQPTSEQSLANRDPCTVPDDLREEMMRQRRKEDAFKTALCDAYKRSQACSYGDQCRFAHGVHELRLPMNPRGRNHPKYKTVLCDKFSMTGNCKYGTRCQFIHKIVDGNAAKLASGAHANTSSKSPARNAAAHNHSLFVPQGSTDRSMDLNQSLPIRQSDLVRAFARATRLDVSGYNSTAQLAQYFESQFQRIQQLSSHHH

[27] = molecular target: T9, Runt-related transcription factor 1/Core-binding factor subunit beta; test: inhibitors of RUNX1 Runt–CBFb-SMMHC binding, primary screen, biochemical, FRET, Cerulean-Runt, Venus-CBFb-SMMHC, uHTS (AID 1434); format: protein assay;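 also: partner is the CBFb-SMMHC leukemia fusion protein rather than wild-type CBFb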
INS1 = test: beta cell apoptosis inhibitors, cytokine rescue, dose response, luminescence, retest (AID 449756); format: functional, cell-based; settings: Rattus norvegicus;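 also: cell death triggered by IL-1 beta plus TNF-alpha plus IFN-gamma mixture; protective hits raise ATP signal compared with cytokine alone wells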
[28] = Luminescence Cell-Based Dose Retest to Confirm Inhibitors of Cancer Stem Cells. [Related pubchem assays (depositor defined):AID2717, AID2721]; format: functional; settings: Homo sapiens
Streptococcus = test: Group A Streptococcus viability loss, dose response, counter-screen for streptokinase expression inhibitor project, luminescence, BacTiterGlo (AID 1915); format: functional, organism-based;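 also: potency for reduction of bacterial viability or growth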
[29] = test system: Streptococcus sp. 'group A'; test: growth inhibition of control SK(-) GAS strain, dose response, counter-screen for streptokinase expression inhibitor project, luminescence, kanamycin, BacTiterGlo, confirmation (AID 1900); format: functional, organism-based
Albumin = Albumin (Bos taurus, UniProt P02769); test: Counterscreen for inhibitors of T-cell receptor (TCR)-CD3 interaction: Fluorescence-based biochemical high throughput dose response assay to identify inhibitors of T-cell receptor (TCR)-CD3 interaction using a TAMRA-labeled BSA probe.; format: functional
SUMO-activating enzyme [30] = molecular target: T11, SUMO-activating enzyme (Homo sapiens, UniProt Q9UBT2); test: SUMOylation inhibitor hit validation, confirmation, SUMOylation inhibitor project, biochemical, AlphaScreen (AID 2018); format: functional
SUMO-activating enzyme [31] = molecular target: T11, SUMO-activating enzyme; test: inhibitors of in vitro SUMOylation cascade, primary screen, biochemical, HTRF, uHTS (AID 2006); format: protein-complex assay
cells [32] = format: functional, cell-based
cells [33] = format: functional, cell-based; remark: listed apart in the source

CCOc1ccc(C(=O)NC2CC3CCCC(C2)N3Cc2ccccc2)cc1 (centres undefined)
14.8 µM: IC50 [5]
active: IC50 [3] 7.52 µM
inactive: EC50 [1] > 32 µM | IC50 [2] > 32 µM | EC50 (Mu-type opioid receptor [4]) > 32 µM | EC50 (Beta-galactosidase [6]) > 31.5 µM | EC50 [7] > 32 µM | IC50 [8] > 32 µM | EC50 (Mu-type opioid receptor [9]) > 32 µM | IC50 (Mu-type opioid receptor [10]) > 32 µM | IC50 [11] > 10 µM | IC50 [12] > 32 µM | EC50 [13] > 32 µM

Cc1ccc(N=Nc2ccc(O)c3ncccc23)cc1C
active: EC50 [15] 1.13 µM | IC50 [17] 2.41 µM | IC50 [18] 1.66 µM
inactive: EC50 (Hexokinase-1) > 80 µM | EC50 (Beta-galactosidase [16]) > 40 µM | EC50 (Hexokinase HKDC1) 21.7 µM
inconclusive: EC50 [19] > 60 µM
35.3 µM (not active): IC50 [14]

Cc1cc2nc(-c3ccc(SCc4ccc(C(=O)O)cc4)nc3)[nH]c2cc1C
active: IC50 [20] 5.73 µM | IC50 [21] 7.97 µM | IC50 [22] 13.9 µM | IC50 [23] 25.8 µM

CC(=O)c1ccc2cccc3c2c1NC(C)=N3
inactive: EC50 (Troponin, cardiac muscle) 17.3 µM | IC50 [25] > 100 µM
active: EC50 [24] 6.57 µM | EC50 [26] 9.79 µM | IC50 [27] 3.05 µM

O=c1c2ccccc2nc(COc2ccccc2)n1/N=C/c1cc([N+](=O)[O-])ccc1O
active: AC50 (INS1) 3.74 µM | AC50 [28] 10.2 µM | EC50 (Streptococcus) 4.65 µM | EC50 [29] 5.71 µM | IC50 (SUMO-activating enzyme [30]) 0.99 µM | IC50 (SUMO-activating enzyme [31]) 32.1 µM | EC50 (cells [32]) 24.3 µM | EC50 (cells [33]) 22.8 µM
inactive: IC50 (Albumin) > 94.1 µM
